Source: the supplement of paper PMC10307832

Assays:
Assay in all cases: relative viability (nuclei count vs DMSO), 5 days (fraction); higher = more cells survive
[1] = compound: CC1=C(C(=NN1)C)CC2=C(C3=C(S2)N(C(=O)N(C3=O)C)CC(C)C)C(=O)N4C[C@@H](CO4)O + NC(=O)Nc1cc(-c2cccc(F)c2)sc1C(=O)N[C@H]1CCCNC1 [AZD7762] (partner 0.2 µM)
Outline: (§1)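 The day after seeding in 1536-well plates, lung cancer cell lines were treated by pin tool with a single drug, or with a fixed anchor-drug dose together with five library-drug doses (not always all listed) in √10 steps. After 5 days, a combined fix-and-stain solution (final 0.05% Triton X-100, 1% formaldehyde, 1 ug/ml Hoechst) was added. Nuclei counted on 4× images gave relative viability as treated counts over vehicle counts, reported as the median of duplicate plates.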

[2] = compound: CC1=C(C(=NN1)C)CC2=C(C3=C(S2)N(C(=O)N(C3=O)C)CC(C)C)C(=O)N4C[C@@H](CO4)O + Cc1cc(Nc2cc(N3CCN(C)CC3)nc(Sc3ccc(NC(=O)C4CC4)cc3)n2)n[nH]1 [Tozasertib] (partner 0.1 µM)
Outline: as §1

[3] = compound: CC1=C(C(=NN1)C)CC2=C(C3=C(S2)N(C(=O)N(C3=O)C)CC(C)C)C(=O)N4C[C@@H](CO4)O + Nc1nc2[nH]cc(CCc3ccc(C(=O)N[C@@H](CCC(=O)O)C(=O)O)cc3)c2c(=O)[nH]1 [Pemetrexed] (partner 0.2 µM)
Outline: as §1

IDH-C35 + Phenformin = compound: Cc1ccccc1C(C(=O)NC1CCCCC1)N(C(=O)Cn1ccnc1C)c1cccc(F)c1 [IDH-C35] + N=C(N)NC(=N)NCCc1ccccc1 [Phenformin] (partner 250 µM)
Outline: as §1

| Cell Line | relative viability ([1]; first compound 0.0025 µM) | relative viability ([1]; first compound 0.007906 µM) | relative viability ([1]; first compound 0.025 µM) | relative viability ([1]; first compound 0.07906 µM) | relative viability ([1]; first compound 0.25 µM) | relative viability ([2]; first compound 0.0025 µM) | relative viability ([2]; first compound 0.007906 µM) | relative viability ([2]; first compound 0.025 µM) | relative viability ([2]; first compound 0.07906 µM) | relative viability ([2]; first compound 0.25 µM) | relative viability ([3]; first compound 0.0025 µM) | relative viability ([3]; first compound 0.007906 µM) | relative viability ([3]; first compound 0.025 µM) | relative viability ([3]; first compound 0.07906 µM) | relative viability ([3]; first compound 0.25 µM) | relative viability (IDH-C35 + Phenformin; first compound 0.08 µM) | relative viability (IDH-C35 + Phenformin; first compound 0.253 µM) | relative viability (IDH-C35 + Phenformin; first compound 0.8 µM) | relative viability (IDH-C35 + Phenformin; first compound 8 µM) | relative viability (IDH-C35 + Phenformin; first compound 2.53 µM) |
| --- | --- | --- | --- | --- | --- | --- | --- | --- | --- | --- | --- | --- | --- | --- | --- | --- | --- | --- | --- | --- |
| HCC-366 | 0.271 | 0.361 | 0.297 | 0.277 | 0.378 | 0.491 | 0.11 | 0.153 | 0.114 | 0.109 | 0.178 | 0.191 | 0.133 | 0.172 | 0.181 | 0.658 | 0.629 | 0.621 | 0.578 | – |
| HCC-827 | 0.233 | 0.199 | 0.196 | 0.196 | 0.2 | 0.475 | 0.437 | 0.393 | 0.428 | 0.397 | 0.245 | 0.27 | 0.272 | 0.288 | 0.237 | 0.425 | 0.348 | 0.384 | 0.406 | 0.397 |
| HOP-62 | 0.668 | 0.589 | 0.646 | 0.615 | 0.851 | 0.312 | 0.376 | 0.344 | 0.393 | 0.407 | 0.357 | 0.332 | 0.217 | 0.281 | 0.356 | 0.718 | 0.649 | 0.634 | 0.677 | 0.618 |
| LC-2-ad | 0.892 | 0.83 | 0.84 | 0.856 | 0.851 | 0.53 | 0.462 | 0.494 | 0.44 | 0.426 | 0.27 | 0.25 | 0.26 | 0.285 | 0.261 | 0.571 | 0.585 | 0.603 | 0.604 | – |
| LCLC-97TM1 | 0.194 | 0.326 | 0.331 | 0.28 | 0.369 | 0.207 | 0.277 | 0.219 | 0.209 | 0.285 | 0.179 | 0.19 | 0.173 | 0.152 | 0.202 | 0.388 | 0.453 | 0.465 | 0.346 | 0.407 |
| LCLC-103H | 0.793 | 0.914 | 0.768 | 0.807 | 0.749 | 0.544 | 0.564 | 0.505 | 0.551 | 0.543 | 0.437 | 0.474 | 0.444 | 0.459 | 0.505 | 0.308 | 0.338 | 0.344 | 0.34 | 0.364 |
| NCI-H520 | – | – | – | – | – | 0.406 | 0.433 | 0.432 | 0.445 | 0.407 | 0.731 | 0.711 | 0.468 | 0.526 | 0.504 | 0.588 | 0.665 | 0.652 | 0.699 | 0.525 |
| NCI-H661 | – | – | – | – | – | 0.344 | 0.372 | 0.354 | 0.341 | 0.353 | 0.922 | 0.973 | 0.899 | 0.924 | 0.899 | 0.305 | 0.275 | 0.307 | 0.266 | 0.28 |
| NCI-H727 | 0.6 | 0.842 | 0.575 | 0.623 | 0.652 | 0.676 | 0.788 | 0.696 | 0.513 | 0.513 | – | – | – | – | – | 0.471 | 0.525 | 0.509 | 0.579 | 0.493 |
